Reference: patent US8653276B2 (SANOFI, priority 2008, dated 2014)
Counter-ions that a name gives are not always drawn.

| Structure (SMILES) | melting point [°C] |
| --- | --- |
| COC(=O)C1(NC(=O)c2ccc(-n3nc(C)cc3C)c(-c3ccc(Cl)c(OCCCN(C)C)c3)n2)CCCCC1 (as salt: hydrochloride) [Compound 18, methyl 1-({[6-{4-chloro-3-[3-(dimethylamino)propoxy]phenyl}-5-(3,5-dimethyl-1H-pyrazol-1-yl)pyridin-2-yl]carbonyl}amino)cyclohexanecarboxylate] | 158 |
| COC(=O)C1(NC(=O)c2cnc(-c3ccc(C)cc3C)c(-c3ccc(Cl)c(OCCCN(C)C)c3)n2)CCCCC1 (as salt: hydrochloride) [Compound 20, methyl 1-({[6-{4-chloro-3-[3-(dimethylamino)propoxy]phenyl}-5-(2,4-dimethylphenyl)pyrazin-2-yl]carbonyl}amino)cyclohexanecarboxylate] | 118 |
| CCOc1ccc(Cl)c(-c2ncc(C(=O)N[C@@H](CC(=O)OC)C(C)(C)C)nc2-c2ccc(Cl)c(OCCCN(C)C)c2)c1 (as salt: hydrochloride) [Compound 24, methyl(3S)-3-({[6-{4-chloro-3-[3-(dimethylamino)propoxy]phenyl}-5-(2-chloro-5-ethoxyphenyl)pyrazin-2-yl]carbonyl}amino)-4,4-dimethylpentanoate] | 112 |
| COC(=O)C1(NC(=O)c2ccc(-c3ccccc3Cl)c(-c3ccc(Cl)c(OCCCN(C)C)c3)n2)C2CC3CC(C2)CC1C3 (stereo not drawn) (as salt: hydrochloride) [Compound 26, methyl 2-({[6-{4-chloro-3-[3-(dimethylamino)propoxy]phenyl}-5-(2-chlorophenyl)pyridin-2-yl]carbonyl}amino)adamantane-2-carboxylate] | 135 |
| CCOC(=O)C[C@H](NC(=O)c1ccc(-c2ccccc2C)c(-c2ccc(Cl)c(OCCCN(C)C)c2)n1)C(C)(C)C (as salt: hydrochloride) [Compound 29, ethyl(3S)-3-({[6-{4-chloro-3-[3-(dimethylamino)propoxy]phenyl}-5-(2-methylphenyl)pyridin-2-yl]carbonyl}amino)-4,4-dimethylpentanoate] | 90 |
| CNC(=O)C[C@H](NC(=O)c1ccc(-c2ccccc2C)c(-c2ccc(Cl)c(OCCCN(C)C)c2)n1)C(C)(C)C (as salt: hydrochloride) [Compound 33, 6-{4-chloro-3-[3-(dimethylamino)propoxy]phenyl}-N-{(1S)-2,2-dimethyl-1-[2-(methylamino)-2-oxoethyl]propyl}-5-(2-methylphenyl)pyridine-2-carboxamide] | 152 |
